Test [1] has as its target T1, recombinant human dopamine D2L receptors (Homo sapiens, UniProt P14416).
T1 construct: expressed in transfected cells; host or cells: HEK-293 (HEK-D2L), membrane homogenates
The experiment in a line: Dopamine Binding Assay. The settings on record: HEK-D2L cell membranes, 150 pM [3H]-spiperone, Cheng and Prusoff. The method in brief:
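Competition binding on HEK-293 membranes stably expressing human D2L (~5 μg protein) with 150 pM [3H]-spiperone, 1.5 h at 22 °C in 50 mM Tris pH 7.4, 1 mM EDTA, 6 mM MgCl2. Filtration read-out; non-specific binding defined with 2 μM (+)butaclamol, Ki by Cheng-Prusoff.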

Test [2] addresses T2, human serotonin transporters (Homo sapiens, UniProt P31645).
T2 construct: expressed in transfected cells; host or cells: HEK-293 (HEK-hSERT), membrane homogenates
The experiment in a line: Serotonin Transporter Binding Assay. The conditions noted are these: HEK-hSERT cell membranes, 1 nM [3H]-citalopram, Cheng and Prusoff. The method in brief:
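Displacement of 1 nM [^3H]-citalopram (1 hr, 25° C, Tris pH 7.4 with NaCl/KCl) from membranes of HEK-293 cells stably expressing human SERT, with bound ligand read after filtration. 10 μM fluoxetine defined non-specific binding. Ki values were derived via Cheng–Prusoff from IC50 displacement-curve midpoints.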

Structures can show the parent of a compound that is named as a salt. Where two headings read alike, the source gives them in different places. Bounds are passed on as bounds.

T1 sequence (P14416 whole entry): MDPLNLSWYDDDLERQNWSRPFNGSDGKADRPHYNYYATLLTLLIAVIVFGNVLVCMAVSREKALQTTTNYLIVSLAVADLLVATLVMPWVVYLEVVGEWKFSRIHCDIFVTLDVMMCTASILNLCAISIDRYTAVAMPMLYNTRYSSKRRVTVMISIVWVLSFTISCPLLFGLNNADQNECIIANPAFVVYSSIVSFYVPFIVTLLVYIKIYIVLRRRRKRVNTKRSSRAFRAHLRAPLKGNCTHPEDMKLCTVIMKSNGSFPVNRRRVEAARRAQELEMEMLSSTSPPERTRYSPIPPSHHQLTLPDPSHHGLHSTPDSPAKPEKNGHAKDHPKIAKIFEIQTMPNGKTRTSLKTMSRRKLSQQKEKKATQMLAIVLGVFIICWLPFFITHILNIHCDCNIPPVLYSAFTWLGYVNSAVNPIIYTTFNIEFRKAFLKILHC
T2 sequence (P31645 whole entry): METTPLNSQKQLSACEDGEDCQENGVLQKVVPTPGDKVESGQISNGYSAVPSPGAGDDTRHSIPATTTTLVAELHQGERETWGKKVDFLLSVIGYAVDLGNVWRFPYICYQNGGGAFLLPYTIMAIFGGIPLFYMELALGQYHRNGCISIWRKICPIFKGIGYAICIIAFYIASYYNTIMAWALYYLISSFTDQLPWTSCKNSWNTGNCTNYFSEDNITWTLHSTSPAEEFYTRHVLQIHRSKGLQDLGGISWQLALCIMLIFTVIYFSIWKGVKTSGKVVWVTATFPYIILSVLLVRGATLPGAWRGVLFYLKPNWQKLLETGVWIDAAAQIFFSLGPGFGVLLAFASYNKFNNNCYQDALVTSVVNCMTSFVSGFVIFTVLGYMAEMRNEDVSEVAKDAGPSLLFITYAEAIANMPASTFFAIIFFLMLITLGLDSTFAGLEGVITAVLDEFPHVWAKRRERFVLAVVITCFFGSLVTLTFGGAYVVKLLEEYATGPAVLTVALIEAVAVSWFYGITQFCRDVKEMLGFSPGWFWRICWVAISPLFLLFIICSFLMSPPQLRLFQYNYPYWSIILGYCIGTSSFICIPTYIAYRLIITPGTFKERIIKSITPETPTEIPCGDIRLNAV

Regarding `CN(Cc1ccccc1)C[C@H]1C[C@@H]1c1c[nH]c2cc(C#N)ccc12` (racemic) [Example 162, 3-{2-[(Benzyl-methyl-amino)-methyl]-cyclopropyl}-1H-indole-6-carbonitrile], the results for the Ki in test [1] and in test [2] (read-out: SERT Ki) were 100 to 1000 nM and 10 to 100 nM, respectively.
With `CCN(CC)CC1CC1c1c[nH]c2ccc(F)cc12` (stereo not shown) [Example 183], the figures for the Ki in test [1] and in test [2] (SERT Ki (nM)) were above 1000 nM and 10 to 100 nM, respectively.
For `COc1cccc(CNC[C@@H]2C[C@H]2c2c[nH]c3ccc(C#N)cc23)c1` (relative stereo) [Example 9, trans-2-[5-Cyanoindol-3-yl]-1-[N-(3-methoxybenzyl)aminomethyl]-cyclopropane], the Ki in test [1] lay in the range of 100 to 1000 nM; in test [2] (read-out: SERT Ki), 1 to 10 nM.
With `CCCOC(=O)NCCCN(C)C[C@@H]1C[C@H]1c1c[nH]c2ccc(C#N)cc12` (relative stereo) [Example 91, trans-2-[5-Cyanoindol-3-yl]-1-[N,N-methyl-2-amino(propylcarbamoyl)propylaminomethyl]-cyclopropane], the Ki is 10 to 100 nM in test [1] and 1 to 10 nM in test [2] (read-out: SERT Ki).
Regarding `N#Cc1ccc2[nH]cc([C@@H]3C[C@H]3CNCCc3cccnc3)c2c1` (relative stereo) [Example 20, trans-2-[5-Cyanoindol-3-yl]-1-[N-2-(3-pyridyl)ethylaminomethyl]-cyclopropane], the Ki in test [1] was above 1000 nM; in test [2] (read-out: SERT Ki) it was 1 to 10 nM.
As for `CC([C@@H]1C[C@H]1c1c[nH]c2ccc(C#N)cc12)N(C)C` (single isomer, unassigned) [Example 122A, trans-3-[2-(1-Dimethylamino-ethyl)-cyclopropyl]-1H-indole-5-carbonitrile], the results for the Ki in test [1] and in test [2] (SERT Ki (nM)) were above 1000 nM and below 1 nM, respectively.
Turning to `N#Cc1ccc2[nH]cc(C3CC3CNCCCc3cccnc3)c2c1` (stereo not drawn) [Example 22, trans-2-[5-Cyanoindol-3-yl]-1-[N-3-(3-pyridyl)propylaminomethyl]-cyclopropane], the Ki in test [1] was 100 to 1000 nM; in test [2] (read-out: SERT Ki) it was 1 to 10 nM.
For the molecule `N#Cc1ccc2[nH]cc([C@@H]3C[C@H]3CNCCOc3ccccc3)c2c1` (relative stereo) [Example 44], the Ki in test [1] and in test [2] (read-out: SERT Ki) was 1 to 10 nM in each case.
Consider `Fc1cccc(CNCC2CC2c2c[nH]c3ccc(F)cc23)c1` (stereo not drawn) [Example 54, trans-1-[N-(3-Fluorobenzyl)aminomethyl]2-[5-fluoroindol-3-yl]-cyclopropane], for which the Ki in test [1] lay in the range of 100 to 1000 nM; in test [2] (read-out: SERT Ki), 10 to 100 nM.
For `CN(C)CC1CC1c1csc2ccccc12` (stereo not shown) [Example 167, (2-Benzo[b]thiophen-3-yl-cyclopropylmethyl)-dimethyl-amine] the same measures were above 1000 nM and 10 to 100 nM.
On to `CNC[C@H]1C[C@@H]1c1c[nH]c2cc(C#N)ccc12` (racemic) [Example 158, 3-(2-Methylaminomethyl-cyclopropyl)-1H-indole-6-carbonitrile], for which the Ki in test [1] is above 1000 nM; in test [2] (SERT Ki (nM)), 10 to 100 nM.
In the case of `CCN(C)CCCC1CC1c1c[nH]c2ccc(C#N)cc12` (stereo not drawn) [Example 178, Trans-2-[5-cyanoindol-3-yl]-1-(3-(N-ethyl-N-methylamino)propyl)-cyclopropane], the Ki in test [1] lay within 100 to 1000 nM; in test [2] (read-out: SERT Ki) it was 10 to 100 nM.
As to `CCN(CCCNC(=O)OC)C[C@@H]1C[C@H]1c1c[nH]c2ccc(C#N)cc12` (relative stereo) [Example 97, trans-2-[5-Cyanoindol-3-yl]-1-[N,N-ethyl-2-amino(methylcarbamoyl)propylaminomethyl]-cyclopropane], the values for the Ki in test [1] and in test [2] (read-out: SERT Ki) were 100 to 1000 nM and 1 to 10 nM, respectively.
For `CCNCC1CC1c1c[nH]c2ccc(F)cc12` (stereo not drawn) [Example 182, cis-1-(N-ethylaminomethyl)-2-[5-fluoroindol-3-yl]-cyclopropane] the same measures were 100 to 1000 nM and 10 to 100 nM.
`COc1ccccc1CNC[C@@H]1C[C@H]1c1c[nH]c2ccc(C#N)cc12` (relative stereo) [Example 8, trans-2-[5-Cyanoindol-3-yl]-1-[N-(2-methoxybenzyl)aminomethyl]-cyclopropane]: the Ki was in the range of 100 to 1000 nM in test [1] and 1 to 10 nM in test [2] (read-out: SERT Ki).
Consider `Fc1ccc2[nH]cc(C3CC3CN3CCCCC3)c2c1` (stereo not drawn) [Example 85, trans-2-[5-Fluoroindol-3-yl]-1-[piperidin-1-yl-methyl]-cyclopropane], for which the Ki was above 1000 nM in test [1] and 10 to 100 nM in test [2] (SERT Ki (nM)).
In the case of `N#Cc1ccc2[nH]cc([C@@H]3C[C@H]3CNCCc3ccccc3)c2c1` (relative stereo) [Example 40], the Ki was in the range of 10 to 100 nM in test [1] and 1 to 10 nM in test [2] (read-out: SERT Ki).
In the case of `CN(C)C[C@@H]1C[C@H]1c1c[nH]c2ccc(C#N)cc12` [Example 127a, (1R,2R)-trans-2-[5-Cyanoindol-3-yl]-1-(N,N-dimethylaminomethyl)cyclopropane maleate salt], the Ki in test [1] is above 1000 nM; in test [2] (read-out: SERT Ki) it was 10 to 100 nM.
As to `CN(C)CCCC1CC1c1c[nH]c2ccc(C#N)cc12` (stereo not drawn) [Example 174, Trans-2-[5-cyanoindol-3-yl]-1-(3-(N,N-dimethylamino)propyl)cyclopropane], the Ki was 100 to 1000 nM in test [1] and 10 to 100 nM in test [2] (read-out: SERT Ki).
In the case of `COc1ccc(CCNC[C@@H]2C[C@H]2c2c[nH]c3ccc(C#N)cc23)cc1` (relative stereo) [Example 43], the Ki lay in the range of 10 to 100 nM in test [1] and 1 to 10 nM in test [2] (read-out: SERT Ki).
`CN(C)C[C@@H]1C[C@H]1c1c[nH]c2ccc(F)cc12` [Example 128a, (1R,2R)-trans-1-(N,N-dimethylaminomethyl)-2-[5-fluoroindol-3-yl]-cyclopropane maleate salt]: the Ki in test [1] was above 1000 nM; in test [2] (read-out: SERT Ki), 10 to 100 nM.
For the molecule `COc1ccc(CCNC[C@@H]2C[C@H]2c2c[nH]c3ccc(F)cc23)cc1` (relative stereo) [Example 82], the Ki in test [1] and in test [2] (read-out: SERT Ki) was 10 to 100 nM each time.
Regarding `CCN(CCCNC(=O)OC(C)C)C[C@@H]1C[C@H]1c1c[nH]c2ccc(F)cc12` (relative stereo) [Example 115, trans-1-[N,N-Ethyl-2-amino(isopropylcarbamoyl)propylaminomethyl]-2-[5-fluoroindol-3-yl]-cyclopropane], the Ki in test [1] was 100 to 1000 nM; in test [2] (read-out: SERT Ki), 10 to 100 nM.
For `N#Cc1ccc2[nH]cc([C@@H]3C[C@H]3CNCCc3cccs3)c2c1` (relative stereo) [Example 25] the same measures were 100 to 1000 nM and 1 to 10 nM.
For the molecule `Fc1ccc2[nH]cc(C3CC3CNCc3cccs3)c2c1` (stereo not drawn) [Example 66, trans-2-[5-Fluoroindol-3-yl]-1-[N-2-thiopheneylmethylaminomethyl]-cyclopropane], the Ki in test [1] lay within 100 to 1000 nM; in test [2] (read-out: SERT Ki), 10 to 100 nM.
In the case of `CCCOC(=O)NCCN(C)C[C@@H]1C[C@H]1c1c[nH]c2ccc(C#N)cc12` (relative stereo) [Example 88, trans-2-[5-Cyanoindol-3-yl]-1-[N,N-methyl-2-amino(propylcarbamoyl)ethylaminomethyl]-cyclopropane], the figures for the Ki in test [1] and in test [2] (read-out: SERT Ki) were above 1000 nM and 1 to 10 nM, respectively.
Consider `CC(C)CCNCC1CC1c1c[nH]c2ccc(F)cc12` (stereo not drawn) [Example 72, trans-2-[5-Fluoroindol-3-yl]-1-[N-3-methyl-butylaminomethyl]-cyclopropane], for which the Ki was in the range of 100 to 1000 nM in test [1] and 10 to 100 nM in test [2] (read-out: SERT Ki).
`N#Cc1ccc2[nH]cc(C3CC3CN3CCN(Cc4ccccc4)CC3)c2c1` (stereo not drawn) [Example 36, trans-1-[4-Benzyl-piperazin-1-yl-methyl]-2-[5-cyanoindol-3-yl]-cyclopropane]: the Ki in test [1] and in test [2] (read-out: SERT Ki) was 10 to 100 nM throughout.
Turning to `CN(C)C[C@H]1C[C@@H]1c1c[nH]c2ccc(C#N)cc12` [Example 5, (1S,2S)-trans-2-[5-cyanoindol-3-yl]-1-(N,N-dimethylaminomethyl)-cyclopropane], the values for the Ki in test [1] and in test [2] (SERT Ki (nM)) were above 1000 nM and below 1 nM, respectively.
As to `CC(C)CNCC1CC1c1c[nH]c2ccc(C#N)cc12` (stereo not drawn) [Example 31, trans-2-[5-Cyanoindol-3-yl]-1-[N-isobutylaminomethyl]-cyclopropane], the Ki in test [1] and in test [2] (read-out: SERT Ki) was 10 to 100 nM throughout.
Turning to `CC(C)OC(=O)NCCCN(C)C[C@@H]1C[C@H]1c1c[nH]c2ccc(F)cc12` (relative stereo) [Example 107, trans-2-[5-Fluoroindol-3-yl]-1-[N,N-methyl-2-amino(isopropylcarbamoyl)propylaminomethyl]-cyclopropane], the Ki fell in the range of 100 to 1000 nM in test [1] and 10 to 100 nM in test [2] (read-out: SERT Ki).
With `CN(C)CC1CC1c1c[nH]c2ccc(F)cc12` (single isomer, unassigned) [Example 130a, Cis-2-[5-Fluoroindol-3-yl]-1-(N,N-dimethylaminomethyl)cyclopropane], the Ki in test [1] is above 1000 nM; in test [2] (SERT Ki (nM)), 100 to 1000 nM.
With `Fc1ccc2[nH]cc(C3CC3CNCc3ccccn3)c2c1` (stereo not drawn) [Example 56, trans-2-[5-Fluoroindol-3-yl]-1-[N-(2-pyridylmethyl)aminomethyl]-cyclopropane], the values for the Ki in test [1] and in test [2] (read-out: SERT Ki) were 100 to 1000 nM and 10 to 100 nM, respectively.
Consider `CN(C)CC1CC1c1c[nH]c2ccc(F)cc12` (single isomer, unassigned) [Example 130b, Cis-2-[5-Fluoroindol-3-yl]-1-(N,N-dimethylaminomethyl)cyclopropane], for which the Ki was above 1000 nM in test [1] and 1 to 10 nM in test [2] (SERT Ki (nM)).
Regarding `CN(C)CC1CC1c1c[nH]c2ccccc12` (stereo not shown) [Example 143], the results for the Ki in test [1] and in test [2] (SERT Ki (nM)) were above 1000 nM and 10 to 100 nM, respectively.

The term Ki denotes the dissociation constant of the complex between target and ligand, obtained from inhibition or displacement.

These data come from US6822100B2 (Bristol-Myers Squibb Company, priority 2001, dated 2004).
